These results are taken from the Kinase Knowledgebase extract (Sharma et al. 2016).

The assay has as its target CDK2 (human) (UniProt P24941). As to the kind of experiment: Enzyme Assay.
The IC50 is the concentration that inhibits the measured activity by half. Read a high IC50 as lower potency. In the case of `Cc1n[nH]cc1-c1ccnc(NCCc2cccnc2)n1`, the IC50 is under 10 µM.

The compound `CCC(C)Nc1cc(-c2cn[nH]c2C(C)C)ccn1` (stereo not drawn) gave a concentration for half-maximal inhibition (IC50) of under 1 µM.

On to `CC(CCCC(C)(C)O)Nc1nccc(-c2c[nH]nc2C(C)C)n1` (stereo not drawn), for which the concentration for half-maximal inhibition (IC50) is under 5 µM.

Compound `Cc1n[nH]cc1-c1ccnc(NCc2cccnc2)n1` displayed an IC50 of under 10 µM.

Turning to `c1ccc2c(c1)CCC2Nc1cc(-c2cn[nH]c2C2CC2)ccn1` (stereo not drawn), the IC50 is under 5 µM.

As for `COCCNc1cc(-c2cn[nH]c2C(C)C)ccn1`, the half-maximal inhibitory concentration (IC50) is under 10 µM.

The compound `Cc1cccc(CNc2cc(-c3cn[nH]c3C(C)C)ccn2)c1` came in with an IC50 of under 5 µM.

In turn, `CC(C)c1n[nH]cc1-c1ccnc(N[C@H]2CCc3ccccc32)n1` showed an IC50 of under 0.5 µM.

Compound `CC(C)c1[nH]ncc1-c1ccnc(NCc2ccco2)c1` displayed an IC50 of under 5 µM.

`CC(C)c1n[nH]cc1-c1ccnc(NCc2ccccc2Cl)n1` returned an IC50 of under 1 µM.

Turning to `CCC(C)Nc1nccc(-c2c[nH]nc2C(C)C)n1` (stereo not drawn), the concentration for half-maximal inhibition (IC50) was under 0.5 µM.

In turn, `c1ccc2c(c1)CC(Nc1cc(-c3cn[nH]c3C3CCCCCC3)ccn1)C2` displayed an IC50 of under 1 µM.

`Cc1cnc(NC2CCN(C)CC2)nc1-c1c[nH]nc1C(C)C`: the IC50 was under 5 µM.

As to `CC(C)c1n[nH]cc1-c1ccnc(NC2CCCc3ccccc32)n1` (stereo not drawn), the IC50 was under 1 µM.

`CC(C)c1[nH]ncc1-c1ccnc(NC2CC2)c1` had an IC50 of under 1 µM.

As for `c1cc(-c2cn[nH]c2C2CCCC2)cc(NC2CCCCC2)n1`, the IC50 is under 1 µM.

Turning to `CC(C)c1n[nH]cc1-c1ccnc(NCCCNC2CCCCC2)n1`, the 50% inhibitory concentration (IC50) is under 10 µM.

Consider `CC(C)c1[nH]ncc1-c1ccnc(NCCc2ccccc2)c1`, for which the half-inhibitory concentration (IC50) is under 1 µM.

`CC(C)c1nn(C)cc1-c1ccnc(NC2CCN(C)CC2)n1` displayed an IC50 of under 5 µM.

In the case of `Cc1nnc(CCNc2nccc(-c3c[nH]nc3C(C)C)n2)[nH]1`, the IC50 is under 5 µM.

In turn, `CC(CCc1ccccc1)Nc1nccc(-c2c[nH]nc2C(C)C)n1` (stereo not drawn) had an IC50 of under 5 µM.

For `c1cc(-c2cn[nH]c2C2CCCC2)cc(NCC2CC2)n1`, the IC50 is under 5 µM.

On to `CCC(CC)c1[nH]ncc1-c1ccnc(NC2CCc3ccccc32)c1` (stereo not drawn), for which the half-inhibitory concentration (IC50) was under 5 µM.

`CC(C)c1[nH]ncc1-c1ccnc(NCC2CCCO2)c1` (stereo not drawn) returned an IC50 of under 10 µM.

The compound `Cc1n[nH]cc1-c1ccnc(NCCC#N)n1` yielded a concentration for half-maximal inhibition (IC50) of under 15 µM.

As for `Cc1ccccc1CNc1nccc(-c2c[nH]nc2C(C)C)n1`, the half-maximal inhibitory concentration (IC50) is under 1 µM.

In turn, `COCCCNc1cc(-c2cn[nH]c2C(C)C)ccn1` had an IC50 of under 5 µM.

Compound `CC(C)c1[nH]ncc1-c1ccnc(NC(C)c2ccccc2)c1` (stereo not drawn) registered a half-inhibitory concentration (IC50) of under 5 µM.

Take `CC(C)c1n[nH]cc1-c1ccnc(NC2CCc3cc(F)ccc32)n1` (stereo not drawn): the IC50 was under 0.5 µM.

Take `CCC(CC)c1[nH]ncc1-c1ccnc(NCc2ccccc2C)c1`: the IC50 was under 5 µM.

`CC(C)c1[nH]ncc1-c1ccnc(NC2CCc3ccccc32)c1` (stereo not drawn) came in with an IC50 of under 5 µM.

For the compound `CC(C)c1n[nH]cc1-c1ccnc(NC(C)c2ccccc2)n1` (stereo not drawn), the IC50 was under 5 µM.

For the compound `CC(C)c1[nH]ncc1-c1ccnc(NC2CCCCCC2)c1`, the IC50 is under 0.5 µM.

Take `Cc1n[nH]cc1-c1ccnc(NC2CCN(C)CC2)n1`: the IC50 is under 15 µM.

As to `Cc1n[nH]cc1-c1ccnc(NC2CCC2)n1`, the half-inhibitory concentration (IC50) was under 5 µM.

Turning to `c1ccc(CCNc2cc(-c3cn[nH]c3C3CCCC3)ccn2)cc1`, the half-inhibitory concentration (IC50) is under 5 µM.

The compound `Cc1n[nH]cc1-c1ccnc(NCCCO)n1` yielded a half-inhibitory concentration (IC50) of under 15 µM.

The compound `Cc1n[nH]cc1-c1ccnc(NC2Cc3ccccc3C2)n1` registered an IC50 of under 5 µM.

In turn, `Cc1n[nH]cc1-c1ccnc(NC2CCCCC2)n1` gave a half-inhibitory concentration (IC50) of under 5 µM.

The compound `CCCCNc1cc(-c2cn[nH]c2C(C)C)ccn1` returned a 50% inhibitory concentration (IC50) of under 5 µM.

`CCC(Nc1nccc(-c2c[nH]nc2C(C)C)n1)c1ccccc1` (stereo not drawn) came in with an IC50 of under 5 µM.

`CC(C)c1n[nH]cc1-c1ccnc(NCc2ccccc2F)n1`: the IC50 is under 0.5 µM.

For `CC(C)c1n[nH]cc1-c1ccnc(NC(C)c2ccccn2)n1` (stereo not drawn), the IC50 was under 10 µM.

`Cc1n[nH]cc1-c1ccnc(NCc2cccc(C(F)(F)F)c2)n1` yielded an IC50 of under 10 µM.

`CC(C)COCCCNc1nccc(-c2c[nH]nc2C(C)C)n1` gave an IC50 of under 5 µM.

For `CC(C)c1n[nH]c(Br)c1-c1ccnc(NC2CCN(C)CC2)n1`, the IC50 is under 5 µM.

`CC(C)CNc1nccc(-c2c[nH]nc2C(C)C)n1` yielded an IC50 of under 0.1 µM.

`COCC(C)Nc1nccc(-c2c[nH]nc2C(C)C)n1` (stereo not drawn) registered a half-maximal inhibitory concentration (IC50) of under 1 µM.

The compound `Cc1nnc(C(C)Nc2nccc(-c3c[nH]nc3C(C)C)n2)[nH]1` (stereo not drawn) came in with a half-inhibitory concentration (IC50) of under 15 µM.

Regarding `Cc1n[nH]cc1-c1ccnc(NC2CCc3ccccc32)n1` (stereo not drawn), the IC50 is under 10 µM.

`CC(C)c1n[nH]cc1-c1ccnc(NC2CCCCC2C)n1` (stereo not drawn) yielded a half-inhibitory concentration (IC50) of under 1 µM.

Consider `CC(C)c1n[nH]cc1-c1ccnc(NC2CCCCC2)n1`, for which the IC50 was under 0.05 µM.

`Cc1n[nH]cc1-c1ccnc(NC2CCN(c3ccccc3)CC2)n1` gave an IC50 of under 5 µM.

For `Cc1n[nH]cc1-c1ccnc(NCC2CCCCC2)n1`, the IC50 was under 10 µM.

For `c1cncc(CCNc2cc(-c3cn[nH]c3C3CCCC3)ccn2)c1`, the concentration for half-maximal inhibition (IC50) is under 5 µM.

Regarding `Cc1n[nH]cc1-c1ccnc(NCc2ccncc2)n1`, the IC50 is under 15 µM.

On to `Cc1n[nH]cc1-c1ccnc(NCCc2ccccc2)n1`, for which the concentration for half-maximal inhibition (IC50) is under 10 µM.

The compound `Cc1n[nH]cc1-c1ccnc(NC2CCN(Cc3ccccc3)C2)n1` (stereo not drawn) came in with an IC50 of under 10 µM.

Compound `CC(C)c1n[nH]cc1-c1ccnc(NC2CC(C)(C)c3ccccc32)n1` (stereo not drawn) registered an IC50 of under 5 µM.

On to `CN1CCC(Nc2cc(-c3cn[nH]c3C(C)(C)C)ccn2)CC1`, for which the IC50 was under 15 µM.

Compound `CC(C)c1n[nH]cc1-c1ccnc(NC2CCN(Cc3ccccc3)CC2)n1` came in with a 50% inhibitory concentration (IC50) of under 1 µM.

On to `CC(C)c1[nH]ncc1-c1ccnc(NCc2ccc3c(c2)OCO3)c1`, for which the half-maximal inhibitory concentration (IC50) was under 5 µM.

Take `CCC(C)Nc1nccc(-c2c[nH]nc2C)n1` (stereo not drawn): the IC50 is under 5 µM.

In the case of `CC(C)c1n[nH]cc1-c1ccnc(NC2CCc3ccccc32)n1` (stereo not drawn), the IC50 was under 1 µM.

Compound `CC(C)c1[nH]ncc1-c1ccnc(NC(CO)C(C)C)c1` (stereo not drawn) had an IC50 of under 15 µM.

In the case of `CC(C)c1n[nH]cc1-c1ccnc(N[C@H]2CCCc3ccccc32)n1`, the concentration for half-maximal inhibition (IC50) was under 0.5 µM.

Regarding `Cc1ccccc1CNc1cc(-c2cn[nH]c2C2CC2)ccn1`, the IC50 was under 5 µM.

Regarding `Cc1cc(C)n(CCNc2nccc(-c3c[nH]nc3C(C)C)n2)n1`, the half-maximal inhibitory concentration (IC50) was under 15 µM.

Take `CC(C)c1[nH]ncc1-c1ccnc(NCc2cccc(C(F)(F)F)c2)c1`: the half-maximal inhibitory concentration (IC50) was under 5 µM.

For `CC(C)CNc1cc(-c2cn[nH]c2C2CCCC2)ccn1`, the half-inhibitory concentration (IC50) was under 1 µM.

Take `CC(C)c1n[nH]cc1-c1ccnc(NC2CN3CCC2CC3)n1` (stereo not drawn): the 50% inhibitory concentration (IC50) was under 5 µM.

As for `CC(C)c1[nH]ncc1-c1ccnc(NCCOc2ccccc2)c1`, the concentration for half-maximal inhibition (IC50) is under 10 µM.

`CC(C)c1n[nH]cc1-c1ccnc(N[C@H](C)c2ccccn2)n1` registered an IC50 of under 5 µM.

Turning to `CC(C)c1n[nH]cc1-c1ccnc(NCc2ccccc2C(F)(F)F)n1`, the IC50 is under 5 µM.

For the compound `c1cc(-c2cn[nH]c2C2CCCC2)cc(NC2CC2)n1`, the half-maximal inhibitory concentration (IC50) was under 1 µM.

On to `CC(C)c1n[nH]cc1-c1ccnc(NC2CCN(c3ccccc3)CC2)n1`, for which the IC50 was under 0.5 µM.

With `Cc1n[nH]cc1-c1ccnc(NC2CCCC2)n1`, the IC50 was under 5 µM.

Compound `COc1ccc(CNc2nccc(-c3c[nH]nc3C)n2)cc1` displayed a half-maximal inhibitory concentration (IC50) of under 15 µM.
